#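 In this assay, cells in 96-well plates receive the compound at five concentrations for 48 hours. Endpoints are linearly interpolated between the surrounding concentrations. GI50: concentration for 50% inhibition of growth. Definition used: TGI = concentration required for complete inhibition of growth.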
# Assays:
# Experiment in all cases: DTP human tumour cell line panel, 48 h
# 786-0 renal = system: 786-0 renal
# A498 renal = system: A498 renal
# A549 NSCLC = system: A549 NSCLC
# ACHN renal = system: ACHN renal
# BT-549 breast = system: BT-549 breast
# CAKI-1 renal = system: CAKI-1 renal
# CCRF-CEM leukemia = system: CCRF-CEM leukemia
# COLO 205 colon = system: COLO 205 colon
# DU-145 prostate = system: DU-145 prostate
# EKVX NSCLC = system: EKVX NSCLC
# HCC-2998 colon = system: HCC-2998 colon
# HCT-116 colon = system: HCT-116 colon
# HCT-15 colon = system: HCT-15 colon
# HL-60(TB) leukemia = system: HL-60(TB) leukemia
# HOP-62 NSCLC = system: HOP-62 NSCLC
# HOP-92 NSCLC = system: HOP-92 NSCLC
# HS 578T breast = system: HS 578T breast
# HT29 colon = system: HT29 colon
# IGROV1 ovarian = system: IGROV1 ovarian
# K-562 leukemia = system: K-562 leukemia
# KM12 colon = system: KM12 colon
# LOX IMVI melanoma = system: LOX IMVI melanoma
# M14 melanoma = system: M14 melanoma
# MALME-3M melanoma = system: MALME-3M melanoma
# MDA-MB-231 breast = system: MDA-MB-231 breast
# MDA-MB-435 = system: MDA-MB-435
# MOLT-4 leukemia = system: MOLT-4 leukemia
# NCI-H226 lung = system: NCI-H226 lung
# NCI-H23 lung = system: NCI-H23 lung
# NCI-H460 lung = system: NCI-H460 lung
# NCI-H522 lung = system: NCI-H522 lung
# NCI/ADR-RES ovarian = system: NCI/ADR-RES ovarian
# OVCAR-3 ovarian = system: OVCAR-3 ovarian
# OVCAR-4 ovarian = system: OVCAR-4 ovarian
# OVCAR-5 ovarian = system: OVCAR-5 ovarian
# OVCAR-8 ovarian = system: OVCAR-8 ovarian
# PC-3 prostate = system: PC-3 prostate
# RPMI-8226 leukemia = system: RPMI-8226 leukemia
# RXF 393 renal = system: RXF 393 renal
# SF-268 CNS = system: SF-268 CNS
# SF-295 CNS = system: SF-295 CNS
# SK-MEL-2 melanoma = system: SK-MEL-2 melanoma
# SK-MEL-28 melanoma = system: SK-MEL-28 melanoma
# SK-MEL-5 melanoma = system: SK-MEL-5 melanoma
# SK-OV-3 ovarian = system: SK-OV-3 ovarian
# SNB-19 CNS = system: SNB-19 CNS
# SNB-75 CNS = system: SNB-75 CNS
# SR leukemia = system: SR leukemia
# SW-620 colon = system: SW-620 colon
# T-47D breast = system: T-47D breast
# TK-10 renal = system: TK-10 renal
# U251 CNS = system: U251 CNS
# UACC-257 melanoma = system: UACC-257 melanoma
# UACC-62 melanoma = system: UACC-62 melanoma
# UO-31 renal = system: UO-31 renal
# MCF7 breast = system: MCF7 breast
# SF-539 CNS = system: SF-539 CNS
# SN12C renal = system: SN12C renal
structure (smiles),measurement,setting,value
COC(=O)n1c(=O)n(-c2ccccc2)c(=O)n1C(=O)Nc1ccccc1,TGI,786-0 renal,> 100 µM
same,TGI,A498 renal,> 100 µM
same,TGI,A549 NSCLC,> 100 µM
same,TGI,ACHN renal,> 100 µM
same,TGI,BT-549 breast,> 100 µM
same,TGI,CAKI-1 renal,> 100 µM
same,TGI,CCRF-CEM leukemia,> 100 µM
same,TGI,COLO 205 colon,> 100 µM
same,TGI,DU-145 prostate,> 100 µM
same,TGI,EKVX NSCLC,> 100 µM
same,TGI,HCC-2998 colon,> 100 µM
same,TGI,HCT-116 colon,> 100 µM
same,TGI,HCT-15 colon,> 100 µM
same,TGI,HL-60(TB) leukemia,> 100 µM
same,TGI,HOP-62 NSCLC,> 100 µM
same,TGI,HOP-92 NSCLC,> 100 µM
same,TGI,HS 578T breast,> 100 µM
same,TGI,HT29 colon,> 100 µM
same,TGI,IGROV1 ovarian,> 100 µM
same,TGI,K-562 leukemia,> 100 µM
same,TGI,KM12 colon,> 100 µM
same,TGI,LOX IMVI melanoma,> 100 µM
same,TGI,M14 melanoma,> 100 µM
same,TGI,MALME-3M melanoma,> 100 µM
same,TGI,MDA-MB-231 breast,> 100 µM
same,TGI,MDA-MB-435,> 100 µM
same,TGI,MOLT-4 leukemia,> 100 µM
same,TGI,NCI-H226 lung,> 100 µM
same,TGI,NCI-H23 lung,> 100 µM
same,TGI,NCI-H460 lung,> 100 µM
same,TGI,NCI-H522 lung,> 100 µM
same,TGI,NCI/ADR-RES ovarian,> 100 µM
same,TGI,OVCAR-3 ovarian,> 100 µM
same,TGI,OVCAR-4 ovarian,87.8 µM
same,TGI,OVCAR-5 ovarian,> 100 µM
same,TGI,OVCAR-8 ovarian,> 100 µM
same,TGI,PC-3 prostate,> 100 µM
same,TGI,RPMI-8226 leukemia,> 100 µM
same,TGI,RXF 393 renal,> 100 µM
same,TGI,SF-268 CNS,> 100 µM
same,TGI,SF-295 CNS,> 100 µM
same,TGI,SK-MEL-2 melanoma,> 100 µM
same,TGI,SK-MEL-28 melanoma,> 100 µM
same,TGI,SK-MEL-5 melanoma,> 100 µM
same,TGI,SK-OV-3 ovarian,> 100 µM
same,TGI,SNB-19 CNS,> 100 µM
same,TGI,SNB-75 CNS,> 100 µM
same,TGI,SR leukemia,> 100 µM
same,TGI,SW-620 colon,> 100 µM
same,TGI,T-47D breast,> 100 µM
same,TGI,TK-10 renal,> 100 µM
same,TGI,U251 CNS,> 100 µM
same,TGI,UACC-257 melanoma,> 100 µM
same,TGI,UACC-62 melanoma,> 100 µM
same,TGI,UO-31 renal,> 100 µM
CC(C)Oc1ccc(CNC2=NCCO2)c2ccccc12,TGI,786-0 renal,26.4 µM
same,TGI,A498 renal,23 µM
same,TGI,A549 NSCLC,30.8 µM
same,TGI,ACHN renal,27.7 µM
same,TGI,CCRF-CEM leukemia,30.4 µM
same,TGI,COLO 205 colon,36.8 µM
same,TGI,DU-145 prostate,33.5 µM
same,TGI,EKVX NSCLC,29.2 µM
same,TGI,HCC-2998 colon,25.3 µM
same,TGI,HCT-116 colon,27 µM
same,TGI,HCT-15 colon,29.8 µM
same,TGI,HL-60(TB) leukemia,23.6 µM
same,TGI,HOP-62 NSCLC,30.8 µM
same,TGI,HS 578T breast,32 µM
same,TGI,HT29 colon,16.3 µM
same,TGI,IGROV1 ovarian,27.9 µM
same,TGI,K-562 leukemia,15.8 µM
same,TGI,KM12 colon,34 µM
same,TGI,M14 melanoma,24.4 µM
same,TGI,MALME-3M melanoma,28 µM
same,TGI,MCF7 breast,29.6 µM
same,TGI,MDA-MB-231 breast,28.9 µM
same,TGI,MDA-MB-435,24.2 µM
same,TGI,MOLT-4 leukemia,19.8 µM
same,TGI,NCI-H226 lung,33 µM
same,TGI,NCI-H23 lung,30.2 µM
same,TGI,NCI-H460 lung,26.7 µM
same,TGI,NCI/ADR-RES ovarian,31.9 µM
same,TGI,OVCAR-4 ovarian,31.1 µM
same,TGI,OVCAR-5 ovarian,24.3 µM
same,TGI,OVCAR-8 ovarian,31.9 µM
same,TGI,RPMI-8226 leukemia,28.3 µM
same,TGI,RXF 393 renal,28.3 µM
same,TGI,SF-268 CNS,45.7 µM
same,TGI,SF-295 CNS,26.8 µM
same,TGI,SF-539 CNS,24 µM
same,TGI,SK-MEL-28 melanoma,27.6 µM
same,TGI,SK-MEL-5 melanoma,26.3 µM
same,TGI,SK-OV-3 ovarian,30.9 µM
same,TGI,SN12C renal,32.2 µM
same,TGI,SNB-19 CNS,23 µM
same,TGI,SNB-75 CNS,34.7 µM
same,TGI,SR leukemia,26.3 µM
same,TGI,SW-620 colon,31.7 µM
same,TGI,T-47D breast,31.3 µM
same,TGI,TK-10 renal,30.2 µM
same,TGI,U251 CNS,32.1 µM
same,TGI,UACC-257 melanoma,20 µM
same,TGI,UACC-62 melanoma,30.6 µM
same,TGI,UO-31 renal,18.2 µM
BrCCCc1n(Cc2ccc3ccccc3c2)c2ccccc2[n+]1Cc1ccc2ccccc2c1,GI50,DU-145 prostate,1.58 µM
same,TGI,DU-145 prostate,4.25 µM
same,GI50,NCI/ADR-RES ovarian,8.47 µM
same,TGI,NCI/ADR-RES ovarian,> 81.3 µM
CC(=O)O[C@H]1CC[C@]2(C)[C@H]3CC=C4[C@@H]5CC(C)(C)CC[C@]5(C(=O)NCCNCCN)CC[C@@]4(C)[C@]3(C)CC[C@H]2C1(C)C,GI50,ACHN renal,0.196 µM
same,TGI,ACHN renal,0.388 µM
same,GI50,BT-549 breast,1.68 µM
same,TGI,BT-549 breast,3.3 µM
same,GI50,CAKI-1 renal,1.25 µM
same,TGI,CAKI-1 renal,2.59 µM
same,GI50,DU-145 prostate,1.29 µM
same,TGI,DU-145 prostate,2.74 µM
same,GI50,HCC-2998 colon,0.624 µM
same,TGI,HCC-2998 colon,2.12 µM
same,GI50,HCT-15 colon,0.282 µM
same,TGI,HCT-15 colon,0.895 µM
same,GI50,KM12 colon,1.64 µM
same,TGI,KM12 colon,3.17 µM
same,GI50,MDA-MB-435,1.34 µM
same,TGI,MDA-MB-435,2.65 µM
same,GI50,NCI/ADR-RES ovarian,1.65 µM
same,TGI,NCI/ADR-RES ovarian,3.65 µM
same,GI50,OVCAR-5 ovarian,1.64 µM
same,TGI,OVCAR-5 ovarian,3.09 µM
same,GI50,OVCAR-8 ovarian,1.7 µM
same,TGI,OVCAR-8 ovarian,4.27 µM
same,GI50,PC-3 prostate,1.1 µM
same,TGI,PC-3 prostate,2.43 µM
same,GI50,RPMI-8226 leukemia,1.2 µM
same,TGI,RPMI-8226 leukemia,3.52 µM
same,GI50,SF-295 CNS,1.77 µM
same,TGI,SF-295 CNS,3.25 µM
same,GI50,SF-539 CNS,1.51 µM
same,TGI,SF-539 CNS,2.94 µM
same,GI50,SK-MEL-28 melanoma,1.71 µM
same,TGI,SK-MEL-28 melanoma,3.23 µM
same,GI50,SN12C renal,1.67 µM
same,TGI,SN12C renal,3.23 µM
same,GI50,SNB-75 CNS,1.36 µM
same,TGI,SNB-75 CNS,2.65 µM
same,GI50,UO-31 renal,1.28 µM
same,TGI,UO-31 renal,2.76 µM
